From patent US20110288154A1, “RNA Interference Mediated Inhibition of Epithelial Sodium Channel (ENaC) Gene Expression Using Short Interfering Nucleic Acid (siNA)” (MERCK & CO., INC., priority 2008, published 2011)

Tested on: ENaC
Experiment: FLIPR assay of sodium transport in recombinant HEK cells over expressing ENaC
Format: cell-based, human
Settings: recombinant HEK cells expressing ENaC
Protocol: Recombinant HEK293 cell line (expressing ENaC beta & gamma) SCNN1B (P618AY620L)+SCNN1G (P624stop) #24. were grown at 37 deg in the presence of CO2 and were cultured in M1 medium M1+0.5 mg/ml geneticin and 0.2 mg/ml hygromycin.
Functional Effects on ENaC via FLIPR in Cells Over Expressing ENaCa: A reverse transfection methodology was used to transfect the HEK recombinant cell line. 5 ul of siRNA (diluted in Optimem to the appropriate concentration) was mixed with 5 ul of the Gemini lipid transfection reagent diluted in Optimem in 384 well non-coated FLIPR plate. Plates were incubated at room temperature for 20 minutes to allow complex formation. Cells were harvested, spun down, diluted to 3×10^5/ml and plated out at 40 ul/well (12K/well) in 384 well plate format containing the transfection complex. The plates were incubated overnight for 20 hours. The cells were then transduced with BacMam virus expressing ENaC alpha (BacMam viruses expressing SCNN1A, GRITS 29703, titre 0.356×10^8/ml). 30 ul of virus was added (1.7%) 20K/well, MOI was approximately 1. Cells were incubated for 24 hours. On day of the FLIPR assay, media was aspirated, leaving 10 ul volume. 20 ul of dye per well was loaded (FMP2 Blue dye, R8181, MDS. For each pot, 133 ml Tyrodes buffer was diluted to make 1× stock prior to assay). The plate was incubated for 0.5 hours at room temperature and 10 ul of the compound added on-line prior to FLIPR read (FLIPR settings: protocol Na MP.fcf, with Exposure length 0.4 sec and Filter #2). Compound plate: 1 ul volume, column 1, 2 and 3 are 16, 4 and 0 uM amiloride final (1/200 dilution) (IC80, IC50 and ctrl).

In the case of `N=C(N)NC(=O)c1nc(Cl)c(N)nc1N` [Amiloride, reference compound], the IC50 (read-out: IC50 of inhibitor in FLIPR assay) is reported as 4 µM and the IC80 (read-out: IC80 of inhibitor in FLIPR assay) is reported as 16 µM.
